Values quoted from earlier work in patent US20250228771A1, “ALKALINE INTRAORAL PRODUCTS” (priority 2022, published 2025).

Details: Tomar S. L. et al., Tobacco Control 1997

For CN1CCCC1c1cccnc1 (stereo not shown) [nicotine], the “lower pKa” value is listed as “about 3.2”.
